Patent publication US10188634B2, “3-(3H-imidazo[4,5-C]pyridin-2-yl)-1 H-pyrazolo[4,3-B]pyridines and therapeutic uses thereof” (Samumed, LLC, priority 2015, dated 2019)

Columns and labels:
[1] = system: primary human mesenchymal stem cells (hMSCs); assay: Induction of chondrogenesis in primary human mesenchymal stem cells (hMSCs), nodule imaging with Rhodamine B / Nile Red; assay type: cell-based; conditions: hMSCs chondrogenesis, TGF-β3 (10 ng/mL) as positive control, read-out: Max. Activity as % TGF-β3 activity
Summary of the method: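 Passage 3-6 hMSCs cultured 6 days at 37° C in incomplete chondrogenic induction medium with compound (2700-10 nM, 96-well; 5000-2.2 nM, 384-well; 0.03% DMSO), TGF-β3 10 ng/mL as positive control. Fixed nodules stained with Rhodamine B/Nile Red, imaged at 531/625 nm; nodule area normalized to DMSO wells for EC50, maximum activity and dose at maximum.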

[2] = system: Wnt activity (Sp5-Luc reporter, human Sp5 promoter with eight TCF/LEF binding sites) in SW480 colon carcinoma cells; assay: Screening assay for Wnt activity: Sp5-Luc reporter gene assay in SW480 cells; assay type: cell-based
Summary of the method: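 Luminescence (BrightGlo) read after overnight 37 °C exposure of Sp5-Luc SW480 reporter cells, 4,000/well in 1% FBS, to compound dosed 1:3 over 10 points from 10 μM with 0.1% DMSO. Values normalized to DMSO-only cells, fitted with variable-slope four-parameter model; where EC50 exceeds 10 μM, % inhibition at 10 μM reported.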

EC50 ([2]; 10-point dose-response starting from 10 μM, overnight incubation): > 10 µM
Structure (SMILES): Cc1cnc(-c2ccc3[nH]nc(-c4nc5c(-c6cccc(F)c6)cncc5[nH]4)c3n2)s1 [Compound 1082, 2-(3-(7-(3-Fluorophenyl)-3H-imidazo[4,5-c]pyridin-2-yl)-1H-pyrazolo[4,3-b]pyridin-5-yl)-5-methylthiazole]
Emax [1]: 45%
inhibition at 10 µM ([2]; 10 μM, read-out: percent inhibition at 10 μM (given for EC50 of >10 μM)): 27%
